Source: PubChem BioAssay AID248 (DTP/NCI, 2004)
“And” between values parts separate entries of the source, which are not always exact repeats. Equal values may be shown once. Inconclusive results and toxic doses are left out. Rule as the data show it: active = T/C of 150% or more; inactive = T/C below 125%.

Tested on: L1210 leukemia ip in BDF1 mice, survival T/C
Test: NCI In Vivo Anticancer Drug Screen. Data for tumor model L1210 Leukemia (intraperitoneal) in B6D2F1 (BDF1) mice
Conditions: endpoint: mean survival time, higher = longer survival
Summary of the method: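 Survival endpoint. Drug-treated group vs vehicle group, expressed as T divided by C. Tumor passaged by transplantation.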

[1] = dose: 100.0 mg/kg/injection, schedule: Q01DX009 (ip), vehicle: saline with Tween-80
[2] = dose: 100.0 mg/kg/injection, schedule: Q01DX009 (ip), vehicle: Klucel (hydroxypropylcellulose) (HPC)
[3] = dose: 200.0 mg/kg/injection, schedule: Q01DX009 (ip), vehicle: Klucel (hydroxypropylcellulose) (HPC)
[4] = dose: 400.0 mg/kg/injection, schedule: Q01DX009 (ip), vehicle: Klucel (hydroxypropylcellulose) (HPC)
[5] = dose: 50.0 mg/kg/injection, schedule: Q01DX009 (ip), vehicle: saline
[6] = dose: 100.0 mg/kg/injection, schedule: Q01DX009 (ip), vehicle: saline
[7] = dose: 100.0 mg/kg/injection, schedule: Q04DX003 (ip), vehicle: saline
[8] = dose: 200.0 mg/kg/injection, schedule: Q01DX009 (ip), vehicle: saline
[9] = dose: 200.0 mg/kg/injection, schedule: Q04DX003 (ip), vehicle: saline
[10] = dose: 400.0 mg/kg/injection, schedule: Q01DX009 (ip), vehicle: saline
[11] = dose: 400.0 mg/kg/injection, schedule: Q04DX003 (ip), vehicle: saline
[12] = dose: 100.0 mg/kg/injection, schedule: Q04DX003 (ip), vehicle: Klucel (hydroxypropylcellulose) (HPC)
[13] = dose: 200.0 mg/kg/injection, schedule: Q04DX003 (ip), vehicle: Klucel (hydroxypropylcellulose) (HPC)
[14] = dose: 400.0 mg/kg/injection, schedule: Q04DX003 (ip), vehicle: Klucel (hydroxypropylcellulose) (HPC)
[15] = dose: 100.0 mg/kg/injection, schedule: Q04DX002 (ip), vehicle: Klucel (hydroxypropylcellulose) (HPC)
[16] = dose: 200.0 mg/kg/injection, schedule: Q04DX002 (ip), vehicle: Klucel (hydroxypropylcellulose) (HPC)
[17] = dose: 400.0 mg/kg/injection, schedule: Q04DX002 (ip), vehicle: Klucel (hydroxypropylcellulose) (HPC)
[18] = dose: 100.0 mg/kg/injection, schedule: Q04DX002 (ip), vehicle: saline with Tween-80
[19] = dose: 200.0 mg/kg/injection, schedule: Q04DX002 (ip), vehicle: saline with Tween-80
[20] = dose: 400.0 mg/kg/injection, schedule: Q04DX002 (ip), vehicle: saline with Tween-80
[21] = dose: 50.0 mg/kg/injection, schedule: Q04DX002 (ip), vehicle: saline with Tween-80
[22] = dose: 100.0 mg/kg/injection, schedule: Q01DX001 (ip), vehicle: saline
[23] = dose: 200.0 mg/kg/injection, schedule: Q01DX001 (ip), vehicle: saline
[24] = dose: 100.0 mg/kg/injection, schedule: Q01DX001 (ip), vehicle: Klucel (hydroxypropylcellulose) (HPC)
[25] = dose: 200.0 mg/kg/injection, schedule: Q01DX001 (ip), vehicle: Klucel (hydroxypropylcellulose) (HPC)
[26] = dose: 400.0 mg/kg/injection, schedule: Q01DX001 (ip), vehicle: Klucel (hydroxypropylcellulose) (HPC)

Measured: T/C

COC(CNCCO)c1ccccc1 (stereo unspecified)
inactive: dose: 25.0 mg/kg/injection, schedule: Q01DX009 (ip), vehicle: saline with Tween-80 104 % of control | dose: 50.0 mg/kg/injection, schedule: Q01DX009 (ip), vehicle: saline with Tween-80 98 % of control | [1] 106 % of control

COc1ccc(C(=O)Nc2ccccc2)cc1NC(=O)NC(C)=O
inactive: [2] 97 % of control | [3] 106 % of control | [4] 100 % of control

Cc1cc(C(=O)NN)c(C#N)c(=O)[nH]1
inactive: dose: 100.0 mg/kg/injection, schedule: Q01DX001 (ip), vehicle: other 93 % of control | dose: 200.0 mg/kg/injection, schedule: Q01DX001 (ip), vehicle: other 95 % of control | dose: 400.0 mg/kg/injection, schedule: Q01DX001 (ip), vehicle: other 97 % of control

CC(C)NNC(=O)C(N)CCC(=O)O (stereo unspecified)
inactive: dose: 25.0 mg/kg/injection, schedule: Q01DX009 (ip), vehicle: saline 105 % of control | dose: 25.0 mg/kg/injection, schedule: Q04DX003 (ip), vehicle: saline 117 % of control | [5] 91 % of control | dose: 50.0 mg/kg/injection, schedule: Q04DX003 (ip), vehicle: saline 107 % of control | [6] 98 % of control | [7] 91 % of control | [8] 109 % of control | [9] 90 % of control | [10] 118 % of control | [11] 98 % of control

CC(O)(c1ccc(Br)cc1)C(c1ccccc1)c1ccccn1 (stereo unspecified)
inactive: [5] 103 % of control | [6] 94 % of control | [7] 110 % of control | [8] 94 % of control | [9] 103 % of control | [10] 101 % of control | [11] 110 % of control

CC(C)=CC[N+]12CN3CN(CN(C3)C1)C2
inactive: [7] 97 % of control | [9] 103 % of control | [11] 110 % of control

CCCC(=O)C(C)C(=O)C(F)(F)F.CCCC(=O)C(C)C(=O)C(F)(F)F.CCCC(=O)C(C)C(=O)C(F)(F)F.[Er] (stereo unspecified)
inactive: [2] 116 % of control | [12] 98 % of control | [3] 102 % of control | [13] 94 % of control | [4] 113 % of control | [14] 94 % of control

Cc1ccc(-n2ccnc2C)c(N=Cc2ccc(N(CCCl)CCCl)cc2C)c1
inactive: [15] 98 % of control | [16] 102 % of control | [17] 106 % of control

CSc1nnc(C)c(=O)[nH]1
inactive: dose: 100.0 mg/kg/injection, schedule: Q01DX001 (ip), vehicle: saline with Tween-80 100 % of control | dose: 200.0 mg/kg/injection, schedule: Q01DX001 (ip), vehicle: saline with Tween-80 102 % of control | dose: 400.0 mg/kg/injection, schedule: Q01DX001 (ip), vehicle: saline with Tween-80 97 % of control

Cc1ccc(S(=O)(=O)ON/N=C2\C(=O)C3CCC2C3)cc1 (stereo unspecified)
inactive: [18] 95 % of control

O=S(=O)(C1CC1)C1CC1
inactive: [18] 94 % of control | [19] 103 % of control | [20] 94 % of control

CSc1ccc(NC(=O)Nc2cccc(C)n2)cc1
inactive: [2] 98 % of control | [12] 95 % of control | [3] 108 % of control | [13] 93 % of control | [4] 97 % of control | [14] 97 % of control

CCOc1ccc(N(O)C(C)=O)cc1
inactive: [7] 91 % of control | [9] 100 % of control | [11] 96 % of control

COc1ccc(C(=O)CC(Sc2ccccc2N)c2ccc(OC)cc2)cc1 (stereo unspecified)
inactive: [2] 87 % of control | [15] 98 % of control | [3] 91 % of control | [16] 95 % of control | [4] 87 % of control | [17] 113 % of control

Nn1c(Cc2ccccc2)nnc1Cc1ccccc1
inactive: [18] 104 % of control | [19] 87 % of control | [20] 108 % of control

COC(=O)c1c(C(=O)OC)c2c(-c3ccccc3)cc3cccc1n32
inactive: [12] 94 % of control | [13] 102 % of control | [14] 94 % of control

COc1cc2c(cc1OC)N=Cc1cccn1C2
inactive: dose: 25.0 mg/kg/injection, schedule: Q04DX002 (ip), vehicle: saline with Tween-80 94 % of control | [21] 97 % of control | [18] 90 % of control

Cc1cnc2ccccc2c1
inactive: [22] 100 % of control | [23] 100 % of control

COc1ccc(C(C#N)N(C)C)cc1OC (stereo unspecified)
inactive: dose: 50.0 mg/kg/injection, schedule: Q01DX001 (ip), vehicle: saline 100 % of control | [22] 100 % of control

O=C(C[n+]1ccc2ccccc2c1)c1cccs1
inactive: dose: 25.0 mg/kg/injection, schedule: Q04DX002 (ip), vehicle: Klucel (hydroxypropylcellulose) (HPC) 90 % of control and 91 % of control | dose: 50.0 mg/kg/injection, schedule: Q04DX002 (ip), vehicle: Klucel (hydroxypropylcellulose) (HPC) 95 % of control and 90 % of control | [15] 98 % of control

CC1(C)N=C(N)N=C(N)N1c1cccc(OCCCOc2cccc([N+](=O)[O-])c2)c1
inactive: dose: 5.0 mg/kg/injection, schedule: Q01DX001 (ip), vehicle: saline 100 % of control | dose: 10.0 mg/kg/injection, schedule: Q01DX001 (ip), vehicle: saline 97 % of control | dose: 20.0 mg/kg/injection, schedule: Q01DX001 (ip), vehicle: saline 97 % of control | dose: 40.0 mg/kg/injection, schedule: Q01DX001 (ip), vehicle: saline 100 % of control | dose: 80.0 mg/kg/injection, schedule: Q01DX001 (ip), vehicle: saline 95 % of control

CC(=O)OI(OC(C)=O)c1ccccc1
inactive: [2] 98 % of control | [3] 102 % of control

CCCCCCCc1cc(=O)n(-c2ccc([N+](=O)[O-])cc2)n1C
inactive: [12] 92 % of control | [13] 91 % of control | [14] 94 % of control

Nc1ccc2nc(NCCO)c3ccccc3c2c1
inactive: [2] 107 % of control | [12] 104 % of control | [3] 114 % of control | [13] 104 % of control | [4] 88 % of control | [14] 104 % of control

C1CC2CC1CC1C3CC4CCC(C4)C3OC21 (stereo unspecified)
inactive: [21] 98 % of control | [18] 102 % of control | [19] 91 % of control | [20] 95 % of control

CC(OC(C)c1ccccc1)c1ccccc1 (stereo unspecified)
inactive: [2] 96 % of control | [3] 105 % of control | [4] 101 % of control

CN1c2ccccc2C(C)(C)C12C=Cc1cc([N+](=O)[O-])cc([N+](=O)[O-])c1O2 (stereo unspecified)
inactive: [24] 105 % of control | [25] 105 % of control | [26] 97 % of control

NNc1ccccc1Cl
inactive: dose: 50.0 mg/kg/injection, schedule: Q01DX001 (ip), vehicle: carboxymethylcellulose (CMC) 108 % of control | dose: 75.0 mg/kg/injection, schedule: Q01DX001 (ip), vehicle: other 102 % of control | dose: 100.0 mg/kg/injection, schedule: Q01DX001 (ip), vehicle: carboxymethylcellulose (CMC) 97 % of control | dose: 150.0 mg/kg/injection, schedule: Q01DX001 (ip), vehicle: other 93 % of control | dose: 200.0 mg/kg/injection, schedule: Q01DX001 (ip), vehicle: carboxymethylcellulose (CMC) 108 % of control

O=C(c1ccccc1)C1CCC1
inactive: [2] 92 % of control | [7] 101 % of control | [3] 98 % of control | [9] 97 % of control | [4] 92 % of control | [11] 97 % of control

Cc1ccc(S(=O)(=O)Nc2ccc(I)c(Cl)c2Cl)cc1
inactive: [1] 101 % of control | dose: 200.0 mg/kg/injection, schedule: Q01DX009 (ip), vehicle: saline with Tween-80 104 % of control | dose: 400.0 mg/kg/injection, schedule: Q01DX009 (ip), vehicle: saline with Tween-80 110 % of control

OC1C2COc3nc4ccccc4n3C(O2)C1O (stereo unspecified)
inactive: [22] 97 % of control | [23] 95 % of control

Oc1ccccc1C=Nc1ccc(Cl)c(Cl)c1
inactive: [2] 93 % of control | [3] 93 % of control | [4] 96 % of control

BrCC1(c2ccccc2)OCCO1
inactive: [24] 100 % of control | [2] 89 % of control | [25] 92 % of control | [3] 89 % of control | [26] 98 % of control
